Experimental data as given in patent publication US6936628B2, “Oral administration of epothilones” (Bristol-Myers Squibb Company, priority 2002, dated 2005).
Read-outs that look alike come from different tables or passages of the source.

Legend:
[1] = Effects of formulation on antitumor efficacy; format: in vivo
CYP1A2 = target: T1, CYP1A2 (Homo sapiens, UniProt P05177); assay: Inhibition of human CYP enzymes, CYP1A2
T1 sequence (P05177 1-516): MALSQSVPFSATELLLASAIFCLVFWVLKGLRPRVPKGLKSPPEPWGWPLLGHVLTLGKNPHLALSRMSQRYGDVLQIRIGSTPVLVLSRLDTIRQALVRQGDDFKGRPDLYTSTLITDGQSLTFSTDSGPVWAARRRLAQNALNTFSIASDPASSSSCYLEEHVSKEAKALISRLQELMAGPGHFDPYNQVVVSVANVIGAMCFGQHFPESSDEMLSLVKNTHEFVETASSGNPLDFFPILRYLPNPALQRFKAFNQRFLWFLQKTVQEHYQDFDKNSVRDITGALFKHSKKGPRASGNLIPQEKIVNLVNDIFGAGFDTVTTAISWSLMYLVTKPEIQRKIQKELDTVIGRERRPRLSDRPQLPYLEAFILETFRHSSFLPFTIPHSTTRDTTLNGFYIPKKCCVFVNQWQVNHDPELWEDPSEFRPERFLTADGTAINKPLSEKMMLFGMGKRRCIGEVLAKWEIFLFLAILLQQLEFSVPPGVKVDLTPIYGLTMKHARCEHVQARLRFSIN

[2] = Microsomal incubation, dog; conditions: dog liver microsomes + NADPH, 20 μM
[3] = Microsomal incubation, mouse; conditions: mouse liver microsomes + NADPH, 20 μM
[4] = Single dose IV toxicokinetics in rats; format: in vivo; conditions: both sexes, rat, plasma, IV 1, 5 and 7 mg/kg, across doses and sex
Description: The single dose IV toxicokinetics of Compound A in rats were evaluated as a part of a toxicology study. Compound A, prepared in 50 mM citrate buffer (pH 5), was given intravenously (over approximately 1-2 min period) at doses of 1, 5, and 7 mg/kg to 3 rats/gender/dose. Blood samples were collected at 3, 15, and 30 minutes, and at 1, 3, 6, 12, and 24 h after dosing. Plasma concentrations of Compound A were determined using a validated LC/MS/MS assay with a standard curve range of 2-500 ng/mL. […] Systemic exposures were reasonably similar between male and female rats. […] Furthermore, there appeared to be no differences in the toxicokinetics of Compound A between male and female rats.

[5] = tested on: Pat-26 human pancreatic carcinoma; conditions: mouse, in vivo
[6] = Liver S9 incubation, human; conditions: human liver S9, 20 μM
[7] = Stability in rat EDTA plasma and whole blood; format: in vitro ADME
Description: Plasma samples from exploratory pharmacokinetic studies were analyzed for Compound A concentrations using an LC/MS/MS assay with a standard curve range of 3.9 to 2000 ng/mL. In pharmacodynamic studies, Compound A concentrations were determined using an LC/MS/MS assay with a standard curve range of 10-40000 nM (5.23-20920 ng/mL) in mouse plasma. For toxicology studies, validated LC/MS/MS assays were used to determine the concentrations of Compound A in rat and dog plasma. Analytical data management for the validated assays was carried out using Watson®. The standard curve range for the validated assay in both matrices was 2 to 500 ng/mL of Compound A. The coefficient of variation for the inter- and intra-assay precision in rat and dog plasma was within 9% and the accuracy was greater than 92%. […] Compound A was stable for at least 4 months at !20EC and through at least 3 freeze-thaw cycles in rat and dog EDTA plasma. In addition, Compound A was stable in fresh rat and dog EDTA whole blood for at least 1 h at 4EC.

[8] = vehicle 1 versus vehicle 2
Description: In another pharmacokinetic study, fasted male Sprague-Dawley rats, assigned to two IA groups (2 mg/kg) and one oral (8 mg/kg) group (n=3/group), were administered a single dose of Compound A. Compound A was prepared for IA administration in two separate vehicles: vehicle 1, cremophor:ethanol:water (10:10:80), and vehicle 2, ethanol:phosphate buffer, 0.05 M, pH 7.4 (6:94). The vehicle for the oral administration was ethanol:phosphate buffer, 0.3 M, pH 8 (18:82). Samples were collected at 10, 15, 30, and 45 min, and at 1, 2, 4, 6, 8, 10, 24, and 48 hours after dosing.

SMILES: C/C(=C\c1csc(CN)n1)[C@@H]1C[C@@H]2O[C@]2(C)CCC[C@H](C)[C@H](O)[C@@H](C)C(=O)C(C)(C)[C@@H](O)CC(=O)O1 (relative stereo) [Compound A, [1S-[1R*,3R*(E),7R*,10S*,11R*,12R*,16S*]]-3-[2-[2-(aminomethyl)-4-thiazolyl]-1-methylethenyl]-7,11-dihydroxy-8,8,10,12,16-pentamethyl-4,17-dioxabicyclo[14.1.0]heptadecane-5,9-dione]
- LCK ([1]; formulated in cremophor/ethanol/water (10:10:80, v/v/v)): 3.3
- LCK ([1]; formulated in sodium acetate buffer (30 mM, pH 5.0)): 3.4
- IC50 (CYP1A2): > 70 µM
- rate of oxidative metabolism [2]: 0.07
- rate of oxidative metabolism [3]: 0.3
- AUC [4]: 159 to 1940 ng·h/mL
- Cmax [4]: 183 to 3910 ng/mL
- increase in systemic exposure with cremophor vehicle (vehicle 2 compared to vehicle 1): about 3.4 fold
- increase in systemic exposure with cremophor vehicle (vehicle 2 compared to vehicle 3): ~5.3 fold
- MTD [5]: 10 mg/kg/inj
- LCK (gross log cell kill) ([5]; iv): 1.2
- rate of oxidative metabolism [6]: 0.06
- stable through freeze-thaw cycles ([7]; rat EDTA plasma): at least 3 freeze-thaw cycles
- stable in frozen plasma ([7]; rat EDTA plasma, !20EC): at least 4 months
- stable in plasma prior to processing ([7]; rat EDTA plasma, room temperature): at least 4 h
- stable in fresh whole blood ([7]; rat EDTA whole blood, 4EC): at least 1 h
- stable in an autosampler after processing ([7]; rat plasma samples, 4EC): at least 5 days
- increase in systemic exposure with cremophor vehicle [8]: about 4 fold
